What all share (assay): relative viability (nuclei count vs DMSO), 5 days (fraction); higher = more cells survive
Compound in experiment [1]: CS(=O)(=O)CCNCc1ccc(-c2ccc3ncnc(Nc4ccc(OCc5cccc(F)c5)c(Cl)c4)c3c2)o1 [Lapatinib] + CC(=O)Nc1cccc(-n2c(=O)n(C3CC3)c(=O)c3c(Nc4ccc(I)cc4F)n(C)c(=O)c(C)c32)c1 [Trametinib] (partner 0.02 µM)
The method, boiled down: (§1)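 Medians of duplicate plates are given as relative viability. That measure is the nuclei count in treated wells divided by the count in vehicle wells. Counts were taken on 4× images of lung cancer cell lines in 1536-well plates, 5 days after pin-tool dosing the day after seeding with one drug alone or a fixed anchor-drug dose plus five library-drug doses (not always all listed) in √10 steps.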

Compound in experiment [2]: CC1=NC=CC(=C1)C2=CC=C(C=C2)CC(=O)NC3=CC=C(C=C3)C4=CN=CC=C4 [Wnt-C59] + CC1(C)CCC(c2ccc(Cl)cc2)=C(CN2CCN(c3ccc(C(=O)NS(=O)(=O)c4ccc(N[C@H](CCN5CCOCC5)CSc5ccccc5)c(S(=O)(=O)C(F)(F)F)c4)cc3)CC2)C1 [Navitoclax] (partner 0.5 µM)
The method, boiled down:
as §1

Compound in experiment [3]: CC1=NC=CC(=C1)C2=CC=C(C=C2)CC(=O)NC3=CC=C(C=C3)C4=CN=CC=C4 [Wnt-C59] + C[C@@H](Oc1cc(-c2cnn(C3CCNCC3)c2)cnc1N)c1c(Cl)ccc(F)c1Cl [Crizotinib] (partner 1 µM)
The method, boiled down: as §1

Compound in experiment [4]: CS(=O)(=O)CCNCc1ccc(-c2ccc3ncnc(Nc4ccc(OCc5cccc(F)c5)c(Cl)c4)c3c2)o1 [Lapatinib] + NC(=O)Nc1cc(-c2cccc(F)c2)sc1C(=O)N[C@H]1CCCNC1 [AZD7762] (partner 0.2 µM)
Summed up:
as §1

This is an account of results in the supplement of paper PMC10307832.

On to HARA, for which the relative viability came to 0.476 in experiment [1] (first compound 0.02 µM); 0.316 in experiment [1] (first compound 0.06325 µM); 0.331 in experiment [1] (first compound 0.2 µM); 0.36 in experiment [1] (first compound 0.6325 µM); 0.304 in experiment [1] (first compound 2 µM); 1.18 in experiment [2] (first compound 0.001 µM). In addition, the relative viability in experiment [2] (first compound 0.01 µM) came out at 1.17; in experiment [2] (first compound 0.03162 µM), 1.17; in experiment [2] (first compound 0.1 µM), 1.13; in experiment [3] (first compound 0.001 µM), 1.04; in experiment [3] (first compound 0.01 µM), 0.642; in experiment [3] (first compound 0.03162 µM), 1.15. In addition, the relative viability in experiment [3] (first compound 0.1 µM) was 1.06; in experiment [4] (first compound 0.02 µM), 0.174; in experiment [4] (first compound 0.06325 µM), 0.379; in experiment [4] (first compound 0.2 µM), 0.51; in experiment [4] (first compound 0.6325 µM), 0.344; in experiment [4] (first compound 2 µM), 0.247.

EKVX: the relative viability in experiment [1] (first compound 0.06325 µM) was found to be 0.29; in experiment [1] (first compound 0.2 µM), 0.315; in experiment [1] (first compound 0.6325 µM) it was 0.249; in experiment [1] (first compound 2 µM), 0.147; in experiment [2] (first compound 0.001 µM) it was 0.991; in experiment [2] (first compound 0.01 µM) it was 0.87. Also, the relative viability worked out at 0.896 in experiment [2] (first compound 0.03162 µM); 0.788 in experiment [2] (first compound 0.1 µM); 1.06 in experiment [3] (first compound 0.001 µM); 1.09 in experiment [3] (first compound 0.01 µM); 0.879 in experiment [3] (first compound 0.03162 µM); 0.874 in experiment [3] (first compound 0.1 µM). The relative viability in experiment [4] (first compound 0.06325 µM) stood at 0.518; in experiment [4] (first compound 0.2 µM), 0.693; in experiment [4] (first compound 0.6325 µM) it was 0.708; in experiment [4] (first compound 2 µM), 0.663.

As to HCC-78, the relative viability in experiment [1] (first compound 0.06325 µM) stood at 0.509; in experiment [1] (first compound 0.2 µM) it was 0.668; in experiment [1] (first compound 0.6325 µM), 0.681; in experiment [1] (first compound 2 µM) it was 0.675; in experiment [2] (first compound 0.001 µM) it was 0.781; in experiment [2] (first compound 0.01 µM), 0.729. Moreover, the relative viability in experiment [2] (first compound 0.03162 µM) worked out at 0.731; in experiment [2] (first compound 0.1 µM) it was 0.452; in experiment [3] (first compound 0.001 µM), 0.343; in experiment [3] (first compound 0.01 µM), 0.284; in experiment [3] (first compound 0.03162 µM) it was 0.303; in experiment [3] (first compound 0.1 µM), 0.339. Moreover, the relative viability in experiment [4] (first compound 0.06325 µM) is 0.528; in experiment [4] (first compound 0.2 µM) it was 0.422; in experiment [4] (first compound 0.6325 µM), 0.599; in experiment [4] (first compound 2 µM) it was 0.564.

As to BEN, the relative viability in experiment [1] (first compound 0.02 µM) was found to be 1.05; in experiment [1] (first compound 0.06325 µM) it was 0.898; in experiment [1] (first compound 0.2 µM), 1.05; in experiment [1] (first compound 0.6325 µM), 0.931; in experiment [1] (first compound 2 µM), 0.999; in experiment [2] (first compound 0.001 µM), 0.0424. Also, the relative viability came to 0.0676 in experiment [2] (first compound 0.01 µM); 0.0835 in experiment [2] (first compound 0.03162 µM); 0.0708 in experiment [2] (first compound 0.1 µM); 0.897 in experiment [3] (first compound 0.001 µM); 0.84 in experiment [3] (first compound 0.01 µM); 1.02 in experiment [3] (first compound 0.03162 µM). The relative viability in experiment [3] (first compound 0.1 µM) worked out at 0.923; in experiment [4] (first compound 0.02 µM) it was 0.499; in experiment [4] (first compound 0.06325 µM) it was 0.704; in experiment [4] (first compound 0.2 µM), 0.587; in experiment [4] (first compound 0.6325 µM), 0.855; in experiment [4] (first compound 2 µM), 0.556.

As to NCI-H1734, the relative viability was found to be 0.548 in experiment [1] (first compound 0.06325 µM); 0.626 in experiment [1] (first compound 0.2 µM); 0.691 in experiment [1] (first compound 0.6325 µM); 0.721 in experiment [1] (first compound 2 µM); 0.856 in experiment [2] (first compound 0.001 µM); 0.811 in experiment [2] (first compound 0.01 µM). Moreover, the relative viability in experiment [2] (first compound 0.03162 µM) is 0.86; in experiment [2] (first compound 0.1 µM) it was 0.838; in experiment [3] (first compound 0.001 µM), 0.642; in experiment [3] (first compound 0.01 µM), 0.618; in experiment [3] (first compound 0.03162 µM) it was 0.773; in experiment [3] (first compound 0.1 µM), 0.66. For the same cell line, the relative viability in experiment [4] (first compound 0.06325 µM) is 0.42; in experiment [4] (first compound 0.2 µM), 0.587; in experiment [4] (first compound 0.6325 µM), 0.507; in experiment [4] (first compound 2 µM), 0.541.

As for NCI-H596, the relative viability in experiment [1] (first compound 0.06325 µM) was determined as 0.745; in experiment [1] (first compound 0.2 µM) it was 0.777; in experiment [1] (first compound 0.6325 µM) it was 0.854; in experiment [1] (first compound 2 µM) it was 0.617; in experiment [2] (first compound 0.001 µM), 1.04; in experiment [2] (first compound 0.01 µM), 0.802. Further, the relative viability in experiment [2] (first compound 0.03162 µM) is 1.05; in experiment [2] (first compound 0.1 µM), 1.05; in experiment [3] (first compound 0.001 µM), 0.972; in experiment [3] (first compound 0.01 µM), 1; in experiment [3] (first compound 0.03162 µM) it was 1.32; in experiment [3] (first compound 0.1 µM), 0.932. Besides, the relative viability in experiment [4] (first compound 0.06325 µM) turned out to be 0.878; in experiment [4] (first compound 0.2 µM), 0.939; in experiment [4] (first compound 0.6325 µM), 1.1; in experiment [4] (first compound 2 µM), 0.819.

Consider RERF-LC-KJ, for which the relative viability in experiment [1] (first compound 0.02 µM) was 0.854; in experiment [1] (first compound 0.06325 µM), 0.903; in experiment [1] (first compound 0.2 µM), 0.758; in experiment [1] (first compound 0.6325 µM) it was 0.792; in experiment [1] (first compound 2 µM) it was 0.642; in experiment [2] (first compound 0.001 µM), 0.899. Further, the relative viability came to 0.908 in experiment [2] (first compound 0.01 µM); 1.01 in experiment [2] (first compound 0.03162 µM); 1.31 in experiment [2] (first compound 0.1 µM); 0.868 in experiment [3] (first compound 0.001 µM); 0.764 in experiment [3] (first compound 0.01 µM); 0.878 in experiment [3] (first compound 0.03162 µM). In addition, the relative viability in experiment [3] (first compound 0.1 µM) amounted to 0.852; in experiment [4] (first compound 0.02 µM), 0.391; in experiment [4] (first compound 0.06325 µM), 0.936; in experiment [4] (first compound 0.2 µM), 0.717; in experiment [4] (first compound 0.6325 µM) it was 0.877; in experiment [4] (first compound 2 µM), 0.707.

On to NCI-H1651, for which the relative viability turned out to be 0.856 in experiment [1] (first compound 0.02 µM); 0.809 in experiment [1] (first compound 0.06325 µM); 0.827 in experiment [1] (first compound 0.2 µM); 0.806 in experiment [1] (first compound 0.6325 µM); 0.811 in experiment [1] (first compound 2 µM); 1.07 in experiment [2] (first compound 0.001 µM). In addition, the relative viability in experiment [2] (first compound 0.01 µM) is 1.02; in experiment [2] (first compound 0.03162 µM), 1.11; in experiment [2] (first compound 0.1 µM), 0.955; in experiment [3] (first compound 0.001 µM), 0.856; in experiment [3] (first compound 0.01 µM), 0.855; in experiment [3] (first compound 0.03162 µM), 0.854. Also, the relative viability was determined as 0.864 in experiment [3] (first compound 0.1 µM); 0.468 in experiment [4] (first compound 0.02 µM); 0.451 in experiment [4] (first compound 0.06325 µM); 0.337 in experiment [4] (first compound 0.2 µM); 0.41 in experiment [4] (first compound 0.6325 µM); 0.402 in experiment [4] (first compound 2 µM).
